According to patent publication US11357850B2, “Methods for treating breast cancer using INOS-inhibitory compositions” (The Methodist Hospital, priority 2014, dated 2022):

Assays:
SUM159 [1] = assay: Cell migration, wound healing assay; type: cell-based, human; settings: 96 hrs treatment, wound healing 12 hrs
Protocol: (§1) FIG. 18A and FIG. 18B show the migration of MDA-MB-231 and SUM159 cells was assessed by “wound healing” assay. Briefly, 3×10^5 cells were plated in a 6-well plate until confluence in growth medium. […] A “wound” was then created in the cell monolayer. Images were taken at 0 and 12 hrs. Wound-healing capacity was determined with the software Image J. Data were replicated in three independent experiments. Results were normalized to vehicle;
(§2) Cell migration capacity. Cell migration was determined with a “wound healing assay.” Briefly, 3×10^5 cells/well were grown in 6-well plates until confluence. […] To avoid an impact on cell proliferation, low serum medium was changed by regular growth medium in presence of inhibitors for 24 hrs (96 hrs total). A “wound” was then created in the cell monolayer with a 100-4, pipette tip. Images were taken at 0 hrs, and cells were allowed to heal the wound for 12 hrs. Wound-healing capacity was determined with the software Image J. Data were replicated in three independent experiments.

MDA-MB-231 [2] = assay: Cell migration, wound healing assay; type: cell-based, human; settings: 96 hrs treatment, wound healing 12 hrs
Protocol: as §1, §2

iNOS = iNOS (Homo sapiens, UniProt P35228); assay: LC-MS/MS quantification of citrulline in xenograft tissue; type: in vivo, mice; settings: SUM159 xenograft tissue, 24 hrs after completion of treatment
Protocol: Ratiometric quantification of citrulline SUM159 xenograft tissue LC-MS/MS (Student's t-test). […] Results were normalized to vehicle. Data are presented as mean±SEM. ****p<0.0001, ***p<0.001, **p<0.01, *p<0.05; one-way ANOVA and Bonferroni's post-hoc test;
Metabolite profiling by liquid chromatography-tandem mass spectrometry (LC-MS/MS). MDA-MB-231 and SUM159 xenograft tissue from animal studies (L-NMMA given daily) as well as plasma samples were prepared as previously described. […] LC-MS/MS platform used for metabolite profiling was previously described. Ratiometric quantification of methylarginine (L-NMMA) and citrulline was determined as ion abundance levels in plasma and tumor tissue.

MDA-MB-231 xenografts = MDA-MB-231 xenografts treated with L-NMMA, docetaxel, combination; type: in vivo, mice
Protocol: (§3) Animal Studies. Female SCID Beige mice (4-5 weeks old) (Harlan Laboratories, Houston, Tex., USA) were housed under standard laboratory conditions (22° C.; 12 hrs/12 hrs light/dark cycle and free access to food and water). Either MDA-MB-231 or SUM159 cells (3×10^6) were injected in the right mammary fat pad. Once the tumors reached 150-200 mm^3, the mice were randomized into different groups as follows (n=10/group): 1) Vehicle (saline, i.p.), 2) L-NMMA (either 80 mg/kg or 200 mg/kg, i.p., daily), 3) Docetaxel (20 mg/kg), 4) Combo (L-NMMA and docetaxel).
(§4) Self-renewal and tumor-initiating capacity was determined by MSFE and limiting-dilution assays, respectively, in single cells isolated from tumor tissue. Briefly, breast tumor tissue was minced, digested in DMEM:F12 medium with 100 U/mL of collagenase type 3 (Worthington, Lakewood, N.J., USA) and 0.8 U/mL of dispase (Gibco, Carlsbad, Calif., USA) at 37° C. for 45 min. MSFE was assayed in isolated single cells as stated above. The limiting dilution assay (LDA) was performed injecting either […] isolated cells from tumor tissue in the mammary fat pad of SCID Beige mice (n=12/group). Flow cytometric analysis of CD44^+/CD24^−/low cell population was assayed using published methods.
The role of L-NMMA was then investigated, either alone or in combination with docetaxel in a different TNBC mouse model. Docetaxel (20 mg/kg at days 0 and 21) and 200 mg/kg L-NMMA (daily) were given to MDA-MB-231 xenograft-bearing mice for 31 days.

HCC-70 = assay: PD-L1 expression in TNBC cell line; type: cell-based, human
SUM159 cells = assay: Nitric oxide production (nitrate/nitrite fluorometric assay); type: cell-based, human; settings: nitrate+nitrite in supernatant, up to 24 hrs
Text: Nitric oxide production in SUM159 cells. […] Aliquots of cell culture supernatant were taken at 0, 0.5, 2, 6 and 24 hrs for nitrate+nitrite (total nitric oxide) production with the nitrate/nitrite fluorometric assay kit (Cayman Chemical) following manufacturer's instructions.

SUM159 xenografts = SUM159 xenografts treated with L-NMMA, docetaxel, combination; type: in vivo, mice
Protocol: as §3, §4
To answer this question, daily injections of 80 mg/kg L-NMMA were first given to SUM159 xenograft-bearing mice alone or in combination with docetaxel (20 mg/kg). […] The inventor next analyzed the impact on CSC self-renewal by the MSFE assay.

MDA-MB-468 = assay: PD-L1 expression in TNBC cell line; type: cell-based, human
SUM159 [3] = assay: Cell proliferation assay (WST-1), iNOS inhibitors; type: cell-based, human; settings: highest concentration (4 mM), 96 hrs
Protocol: (§5) Cell Culture. Mesenchymal-like triple negative breast cancer cell lines, MDA-MB-231 and SUM159, were purchased from American Type Culture Collection and Asterand, respectively. […] Mammosphere forming efficiency (MSFE), cell proliferation and migration assays are detailed below. Cell culture and mammosphere forming efficiency assay. […] For mammosphere-forming efficiency (MSFE) assay, 2,000 (SUM159) and 5,000 (MDA-MB-231) cells/well were cultured in 0.5% methylcellulose (MethoCult H4100, StemCell Technologies) and MammoCult basal medium supplemented with 10% MammoCult proliferation supplement, 4 μg/mL heparin and 0.48 μg/mL hydrocortisone (StemCell Technologies, Vancouver, BC, CANADA). […] Primary MSFE was evaluated dividing mammosphere number by cell number. After trypsinization of primary MS, single cells were grown in 0.5% methylcellulose and mammosphere medium (as described above) in absence of treatment. Secondary MS were scanned, counted and secondary MSFE were assessed. For the mouse model of lung metastasis, MDA-MB-231 cells were transfected with a luciferase/GFP-based dual-reporter plasmid and stable clones (MDA-MB-231 L/G) selected with 1 mg/mL blasticidin (InvivoGen, San Diego, Calif., USA). […] Proliferation rate was determined by adding premixed WST-1 reagent (Clontech). After incubation at 37° C. for 3 hrs, absorbance was read at 450 nm (reference wavelength 690 nm).

MDA-MB-231 [4] = assay: Cell proliferation assay (WST-1), iNOS inhibitors; type: cell-based, human; settings: highest concentration (4 mM), 96 hrs
Protocol: as §5

[5] = LC-MS/MS quantification of methylarginine in plasma and tumor tissue; type: in vivo, mice
Protocol: Metabolite profiling by liquid chromatography-tandem mass spectrometry (LC-MS/MS). MDA-MB-231 and SUM159 xenograft tissue from animal studies (L-NMMA given daily) as well as plasma samples were prepared as previously described. L-NMMA (200 mg/kg) was orally administered by gavage to female SCID Beige mice (n=5). Blood was drawn before (baseline, 0 hrs) and after L-NMMA administration (0.5, 2, 12, 24 hrs). LC-MS/MS platform used for metabolite profiling was previously described. Ratiometric quantification of methylarginine (L-NMMA) and citrulline was determined as ion abundance levels in plasma and tumor tissue.

[6] = cited from earlier work
[7] = cited from earlier work; remark: listed apart in the source

[H]/N=C(/NC)NCCC[C@H](N)C(=O)O [L-NMMA, N^G-monomethyl-L-arginine]
migration (SUM159 [1]; micromolar range): not consistent and less effective | migration (SUM159 [1]; millimolar range): reduction in migration capacity | migration (MDA-MB-231 [2]; micromolar range): not consistent and less effective | migration (MDA-MB-231 [2]; millimolar range): reduction in migration capacity | conversion of L-arginine to L-citrulline and NO by iNOS (iNOS): inhibits the conversion of L-arginine to L-citrulline and NO by iNOS | limiting dilution assay, tumors (MDA-MB-231 xenografts; 5 weeks with 5×10^4 cells, vehicle 12/12): 1/12 | tumor growth (MDA-MB-231 xenografts; L-NMMA 200 mg/kg daily, docetaxel 20 mg/kg days 0 and 21, 31 days): reduced tumor growth | limiting dilution assay, tumors (MDA-MB-231 xenografts; after six weeks, vehicle 6/12): 3/12 | primary MS of cells isolated from tumor tissue (MDA-MB-231 xenografts; compared to vehicle and chemotherapy alone groups): less | proliferation rate by immunohistochemistry (Ki67) (MDA-MB-231 xenografts; mouse, in vivo): lower proliferation rate | secondary MS of cells isolated from tumor tissue (MDA-MB-231 xenografts; mouse, in vivo): reduce secondary MS | duration of elevation in BP (after the last injection of L-NMMA): transient and disappeared 24 hrs after the last injection | mean systolic pressure (oral L-NMMA 200 mg/kg, basal levels 120 mmHg): 147 mm Hg | PD-L1 expression (HCC-70): increase the PD-L1 expression | total NO production (SUM159 cells): decrease in total NO production | limiting dilution assay, tumors (SUM159 xenografts; 7 weeks with 5×10^4 cells, vehicle 12/12): 4/12 | tumor growth (SUM159 xenografts; L-NMMA 80 mg/kg daily, alone or with docetaxel 20 mg/kg, after 10 days): no differential effect | tumor growth (SUM159 xenografts; L-NMMA daily dose increased to 200 mg/kg, alone or with docetaxel): efficiently blocked | tumor cell proliferation by immunohistochemistry (Ki67) (SUM159 xenografts; mouse, in vivo): Higher proliferating rate in vehicle and chemotherapy groups compared to L-NMMA and combination groups | limiting dilution assay, tumors (SUM159 xenografts; week nine with 2×10^4 cells, vehicle 7/12): 0/12 | PD-L1 expression (MDA-MB-468): increase the PD-L1 expression | proliferation (SUM159 [3]): anti-proliferative activity | proliferation (MDA-MB-231 [4]): anti-proliferative activity | L-NMMA plasma levels ([5]; 200 mg/kg oral gavage, 0.5, 2, 12, 24 hrs): cleared rapidly | L-NMMA in tumor tissue ([5]; 24 hrs after completion of treatment): accumulates in the tumor tissue | tolerability ([6]; in vivo): well tolerated with few AEs other than transient (minutes) reversible hypertension | mortality ([6]; myocardial infarction complicated by refractory cardiogenic shock): no effect on mortality | time to normalization of blood pressure upon ceasing the infusion ([7]; 12 mg/kg): less than 5 min | transient increase in systolic blood pressure ([7]; 12 mg/kg): up to 25 mm Hg | safety of bolus injections ([7]; 3, 6, and 12 mg/kg prior to infusion of IL-2, n=3 per cohort): safe | blood pressure ([7]; 3 and 6 mg/kg): remained unchanged | clinically apparent side effects ([7]; 3 and 6 mg/kg): did not induce clinically apparent side effects | hematologic, liver, or renal abnormalities ([7]; human, in vivo): not associated with any hematologic, liver, or renal abnormalities
